Experimental data reported in US5804576A, “Derivatives of 5-androsten-17-ones and 5-androstan-17-ones” (Research Corporation Technologies, Inc., priority 1986, dated 1998).

Experiments:
cholesterol = details: mouse, in vivo; cited from earlier work
rat uterus = assay: Uterotrophic test, subcutaneous (Compound 2 vs. DHEA); assay type: in vivo; details: n = 4 or 5
Method: Twenty-two day old rats were obtained from Charles River Laboratories. Animals were used at 29 days of age. Test steroids were suspended by homogenization in sesame oil. Rats were orally intubated at 1-2 P.M. for 3 days with a test steroid in sesame oil or with sesame oil alone (control). On the 4th day the animals were killed and the uteri were removed and weighed.
Compound 2 vs. DHEA. Compounds Administered by Subcutaneous Injection
Steroids were dissolved in 2 ml ethanol and brought up to 5 ml volume with propylene glycol. Concentrations were such that 1 μl/gm body weight delivered the indicated dose.

[1] = test system: 3H-thymidine incorporation in mouse epidermis; details: in vivo; cited from earlier work
[2] = test system: spontaneous breast cancer in C3H mice; details: long-term treatment; cited from earlier work
[3] = test system: Epstein-Barr virus-induced transformation of human lymphocytes; details: cited from earlier work
[4] = test system: (3H) DMBA binding to skin DNA; assay: [3H]DMBA binding to mouse skin DNA, topical steroid; assay type: in vivo, mouse (A/J)
Description: Skin tumors can be induced in the mouse either by weekly application of a carcinogen such as […] (DMBA), or alternatively,by a single sub-threshold dose of the carcinogen followed by twice weekly applications of the tumor promoter tetradecanoylphorbol-13-acetate (TPA). In order to exert its carcinogenic effect, DMBA must be metabolized by an NADPH-dependent mixed-function oxidase to chemically reactive intermediates which bind covalently to DNA and produce mutations leading to malignant transformation. […] This effect of DHEA very probably is a result of the inhibition of G6PDH and lowering of the intracellular pool of NADPH, which is a co-factor for the mixed-function oxidase activation of DMBA.
Binding of [^3 H]DMBA to mouse skin DNA was determined as described in Pashko, L. L., and Schwartz, A. G. (1983), Effect of food restriction, dehydroepiandrosterone, or obesity on the binding of ^3 H-7,12-dimethylbenz(a)-anthracene to mouse skin DNA, J. Gerontol., 38, 8-12. Values are mean±SD for 3 individual determinations, with pooled tissue from 2 mice used for each determination. DHEA or testosterone (400 ug in 0.2 ml acetone) was applied to the skin one hour before [^3 H]DMBA. The mean weight of the food restricted mice was 18.5±1.0 gm, n=6, of the ad libitum fed, 27.4±1.0 gm, n=6, of the ad libitum fed treated with DHEA, 28.2±0.9 gm, n=6, and of the ad libitum fed treated with testosterone, 28.3±0.9 gm, n=6, following two weeks of feeding. The average food consumed was, in gm/mouse/day, 2.2, 3.8, 3.8 and 4.0 for the food restricted, ad libitum fed, ad libitum fed plus DHEA, and ad libitum fed plus testosterone groups, respectively.

[5] = test system: TPA stimulation of 3H-thymidine incorporation in epidermis; assay: Inhibition of TPA stimulation of 3H-thymidine incorporation in epidermis, topical steroid; assay type: in vivo, mouse (A/J)
Method: Tumor promoters, such as TPA, stimulate hyperplasia and DNA synthesis when applied to the skin, and it is believed that this stimulation is an important step in the enhancement of tumorigenesis.
Incorporation of ^3 H-thymidine into A/J mouse epidermal DNA was determined as described in Pashko, L. L., Schwartz, A. G., Abou-Gharbia, M. and Swern, D. (1981), Inhibition of DNA synthesis in mouse epidermis and breast epithelium by dehydroepiandrosterone and related steroids, Carcinogenesis, 2, 717-721. Values are mean±SD for 3 separately treated mice in each group 20 hours after TPA application. DHEA or testosterone was added topically in 0.2 ml acetone one hour before TPA addition.

[6] = test system: cultured rat kidney epithelial cell line; details: cited from earlier work

C[C@]12CC[C@H](O)CC1=CC[C@@H]1[C@@H]2CC[C@]2(C)C(=O)CC[C@@H]12 [DHEA, 3β-Hydroxy-5-androst-en-17-one, reference compound]
anti-hypercholesterolemic effect (in words) (cholesterol): anti-hypercholesterolemic effect | Mean Uterine Weight (rat uterus; 10 mg/kg s.c.): 152 ± 17 Mgs | Mean Uterine Weight (rat uterus; 60 mg/kg s.c.): 290 ± 72 Mgs | 3H-thymidine incorporation in mouse epidermis (in words) [1]: antagonizes the capacity of the tumor promoter | spontaneous breast cancer development (in words) [2]: markedly inhibits spontaneous breast cancer development | weight gain (in words) [2]: reducing weight gain without suppressing appetite | inhibition of Epstein-Barr virus-induced transformation (in words) [3]: inhibitors of Epstein-Barr virus-induced transformation of human lymphocytes | SPECIFIC ACTIVITY ([3H]DMBA bound to skin DNA) ([4]; 400 ug topical one hour before DMBA, ad libitum fed, Table 4): 66 ± 13 cpm/ug DNA | rate of binding of topically applied 3H-DMBA to skin DNA (in words) ([4]; topical, A/J mouse): inhibits the rate of binding of topically applied ^3 H-DMBA to A/J mouse skin DNA | TPA stimulation of epidermal DNA synthesis (in words) [5]: abolishes this stimulation | TPA stimulation of 3H-thymidine incorporation (in words) [6]: antagonizes the capacity of the tumor promoter
